The values that follow come from patent US20250206708A1, “AN OXAZIRIDINE PLATFORM FOR TARGETING FUNCTIONAL ALLOSTERIC METHIONINE SITES” (Novartis AG, priority 2022, published 2025).

Molecules are shown by their SMILES.

Tested on in the first data set: not given
Test: not given
The following applies: sulfimine adduct; obtained from previous report; the values are: ln(kobs), kobs in 1/h; cited from earlier work.
For the compound `CS(C)=NC(=O)N1CCCCC1`, the Rate of Hydrolysis (In(kobs)) was -1.81.
For the compound `CS(C)=NC(=O)N1CCCC1`, the Rate of Hydrolysis (In(kobs)) was -0.96.
Take `CS(C)=NC(=O)NC(C)(C)C`: the Rate of Hydrolysis (In(kobs)) is -0.28.
As for `CS(C)=NC(=O)NCC(C)(C)C`, the Rate of Hydrolysis (In(kobs)) was -0.15.
As to `CC(C)CNC(=O)N=S(C)C`, the Rate of Hydrolysis (In(kobs)) is -0.085.
For the compound `CS(C)=NC(=O)NC1CCCCC1`, the Rate of Hydrolysis (In(kobs)) is 0.032.
Take `CC(C)NC(=O)N=S(C)C`: the Rate of Hydrolysis (In(kobs)) was 0.044.
As to `CCNC(=O)N=S(C)C`, the Rate of Hydrolysis (In(kobs)) was 0.17.
As to `CS(C)=NC(=O)NC(c1ccccc1)c1ccccc1`, the Rate of Hydrolysis (In(kobs)) was 0.24.
`CS(C)=NC(=O)NCc1ccccc1`: the Rate of Hydrolysis (In(kobs)) is 0.29.
For the compound `CS(C)=NC(=O)NCC(F)(F)F`, the Rate of Hydrolysis (In(kobs)) was 0.53.
Take `CCOC(=O)N=S(C)C`: the Rate of Hydrolysis (In(kobs)) was 1.69.

In the next data set the test system is CDK4. As to the kind of experiment: Western blot of Rb phosphorylation (S780, S807/811) as cellular CDK4 activity. The class given is cell-based, human. Conditions: serum-synchronized MCF-7 cells, dose of 500 μM. As to the method:
Cells were synchronized to G1 via serum starvation. Cells were plated at 50% confluency and allowed to adhere overnight in serum-containing media. The next morning, the cells were gently washed twice with HBSS, and serum-free media was added. Cells were allowed to incubate an additional […], […]. Final cell confluency should remain below 75% for optimal results.
Cells were seeded in full media at 8 e5 cells/well in a 6-well plate. They were then serum-synchronized, as outlined in Example 15, and treated with compound as described previously. Cells were monitored by eye for cell death and harvested once high-dose cells were round but not detached. Cells were transferred to ice and washed twice gently with 1 mL ice-cold PBS. 10 mL of lysis buffer was prepared by dissolved a protease-inhibitor table (Pierce; cat no. A32953) and a phosphatase-inhibitor tablet (Roche; cat no. 4906845001) in 10 mL PBS (1% Triton X-100). Cells were scraped to harvest, transferred to 1.5 mL Eppendorf tubes, and incubated at 4° C. for 30 min on a rotator. Samples were spun at 5000×g for 10 min to clarify lysate. Supernatant was transferred to a new tube and protein concentration quantified via BCA assay (Pierce; cat no. 23225). Samples were normalized to the lowest concentration using chilled lysis buffer. […]
As to `C#CCOC(=O)N1C[C@@H]2CN(C(=O)N3OC3c3ccccc3)C[C@@H]2C1` (stereo partly shown) [Compound 300], the “signal from pRb antibodies (cellular CDK4 activity)” value is given as “marked decrease in signal”.
